Results from patent US10513534B2, “2′-chloro nucleoside analogs for HCV infection” (priority 2012, dated 2019).

Experiments:
HCV genotype 1b replicon = test: HCV replicon assay (Zluc luciferase); assay type: cell-based; conditions: Zluc cells, 72 hours; read-out: HCV Replicon EC50
In short: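 Zluc Huh-7 cells with HCV genotype 1b replicon and luciferase reporter treated with 5-fold dilutions (100 μM to 0.0000512 μM final) in duplicate, or at 1 and 10 μM. Luminescence read with ONE-glo; EC50 from dose-response fits, or % inhibition at the fixed concentrations.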

[1] = Stability in simulated intestinal fluid; assay type: in vitro ADME; conditions: simulated intestinal fluid with pancreatin, 100 μM, 2 hours, 37° C.
Method: Stability in Simulated Gastric and Intestinal Fluids: Simulated gastric and intestinal fluids containing pepsin and pancreatin respectively were prepared according to the U.S. Pharmacopoeia USP291 procedure(www.pharmacopeia.cn/v29240/usp29nf24s0_ris1s126.html). Each test compound (final concentration 100 μM) was incubated in duplicate in the appropriate fluid for 2 hours at 37° C. The samples were quenched with […] cold acetonitrile, vortexed for 30 seconds and then centrifuged at 16100×g for 10 min. The supernatants were analyzed by HPLC on a C-18 column with UV detection at 252 nm. The time zero samples were prepared by adding SGF or SIF fluid to the quenching solvent followed by the test compound. Stability of the compound was determined by peak area of the test compound after incubation and calculated as percent of the peak area observed at time zero.

Huh-7 cells = test: Release of active metabolite in Huh-7 cells; assay type: in vitro ADME
Method: Huh-7 cells were plated in 1 mL culture medium (DMEM, containing glucose, L-glutamine and sodium pyruvate, 10% FBS, 100 IU/mL penicillin, 100 μg/mL streptomycin, 2 mM GlutaMAX, 1% MEM non-essential amino acids) at the concentration 0.8, 0.4 and 0.2 million cells per well on 6 well plates for 24, 48 and 72 hr treatment, respectively. Plated cells were incubated overnight at 37° C. in an incubator.
The following morning test compound was diluted to 20 μM from a stock solution in DMSO in fresh culture medium pre-warmed to 37° C. and 1 mL of the solution/well was added to cells. A final medium volume per well was 2.0 mL, test compound concentration in well was 10 μM and final DMSO concentration was 0.1%.
After 24, 48 or 72 hr, the medium was carefully removed and cell monolayers were washed twice with 2 mL ice-cold PBS per well. Following the last wash, all PBS was carefully removed and 1.0 mL of extraction solution (ice-cold 70% methanol) added. The plate was tightly covered with Parafilm, plastic plate cover and Parafilm again and an intracellular content was extracted at −20° C. for 24 hr.
After 24 hr the extracts were transferred into polypropylene microfuge tubes and dry on a refrigerated centrivap concentrator. Dry residues were reconstituted in 250 μL of HPLC-grade water and centrifuged at 16,000×g for 10 min. Aliquots (100 μL each) of the supernatants were transferred into a 96 well plate and internal standard (4 ng/mL final concentration) was added as the internal standard (IS) for LC-MS/MS analysis.

fresh human hepatocytes = test: Release of active metabolite in fresh human hepatocytes; assay type: in vitro ADME; conditions: 10 μM
Method: Plates of fresh human and mouse hepatocytes were obtained on ice. The medium was removed and replaced with hepatocyte culture medium (William's E supplemented with penicillin-streptomycin, 1% L-glutamine, 1% insulin-transferrin-selenium and 0.1 μM Dexamethasone (Invitrogen) or with Invitro GRO HI medium complemented with Torpedo antibiotics (Celsis)). Cells were left overnight in an incubator at 37° C. to acclimatize to culture and the medium.
Hepatocyte incubations were conducted at a final volume of 0.5 mL hepatocyte culture medium/well (0.8 million cells/well for human and 0.5 million cells/well for mouse; 12 well plate no overlay, collagen coat). Culture medium from overnight incubation of cells was removed and replaced with fresh medium, pre-warmed to 37° C., containing 10 μM of test compound from a stock solution in DMSO (final DMSO concentration was 0.1%). At each specific time point, incubation medium was removed and cell monolayers were carefully washed two times with ice-cold PBS. Following the last wash, all PBS was carefully removed and 1.0 mL of extraction solution (ice-cold 70% methanol/30% water) added. Cells were scraped off and suspended in the extraction solution, transferred to 2 mL polypropylene microfuge tubes and intracellular contents extracted overnight at −20° C.
After the overnight treatment the cellular extracts were prepared by centrifugation at 16,000×g for 10 min to remove cellular debris. The remaining sample was then dried using a refrigerated centrivap concentrator. Dry extracts were reconstituted in 1000 μL of HPLC-grade water and centrifuged at 16,000×g for 10 min. Aliquots (100 μL each) of the supernatant were transferred into a 96 well plate and internal standard (4 ng/mL final concentration) was added as the internal standard (IS) for LC-MS/MS analysis.
The incubation time points were 6, 24 and 48 hours for human hepatocytes and 1, 4, 8, 12 and 24 hours for mouse hepatocytes.

[2] = Liver triphosphate pharmacokinetics after single oral dose in CD-1 mice; assay type: in vivo; conditions: single oral dose 10 mg/kg in PEG 200;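 for Ms Liver TP AUC: pmol·h/g liver normalized to a 1 µmol/kg dose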;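 for Ms Liver TP Cmax: pmol/g liver normalized to a 1 µmol/kg dose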
Method: Internal standard solution was added to the homogenate followed by neutralization with 20% ammonium hydroxide solution and addition of 500 μL 1% formic acid. The tissue samples were extracted by weak anion exchange solid phase extraction (SPE). Post extraction, the eluates were evaporated under nitrogen, followed by reconstitution before injection onto the LC-MS/MS system.

## CC(C)OC(=O)[C@H](C)NP(=O)(OC[C@H]1O[C@@H](n2ccc(=O)[nH]c2=O)[C@](C)(Cl)[C@@H]1O)Oc1ccccc1 (single isomer, unassigned) [Compound 40ii Diastereomer 2]
HCV genotype 1b replicon
  EC50: < 250 nM
[1]
  SIF stability (percent remaining): + (+ ≤ 25%)
Huh-7 cells; 10 μM
  Huh-7 TP AUC: ++++ (1500 < ++++)
Huh-7 cells; 10 μM test compound
  Huh-7 TP Cmax: ++++ (100 < ++++)
Huh-7 cells; 10 μM, 24 hr
  Huh-7 TP (24 hr): ++++ (100 < ++++)
Huh-7 cells; 10 μM, 48 hr
  Huh-7 TP (48 hr): ++++ (100 < ++++)
Huh-7 cells; 10 μM, 72 hr
  Huh-7 TP (72 hr): ++++ (100 < ++++)
Fresh human hepatocytes
  FHH TP AUC: ++++ (1500 < ++++)
  FHH TP Cmax: ++++ (100 < ++++)
Fresh human hepatocytes; 6 hr
  FHH TP (6 hr): ++++ (100 < ++++)
Fresh human hepatocytes; 24 hr
  FHH TP (24 hr): +++ (50 < +++ ≤ 100)
Fresh human hepatocytes; 48 hr
  FHH TP (48 hr): +++ (50 < +++ ≤ 100)
[2]
  Ms Liver TP AUC: +++ (500 < +++ ≤ 1500)
  Ms Liver TP Cmax: ++ (15 < ++ ≤ 50)
